Results from patent US20230295087A1, “AGONISTS OF ROR GAMMAt” (BRISTOL-MYERS SQUIBB COMPANY, priority 2019, published 2023).
pEC50: −log10 of the molar value.

Target: T1, human RORgT (Homo sapiens, UniProt P51449)
T1 construct: expressed in transfected cells
T1 sequence (P51449 267-516): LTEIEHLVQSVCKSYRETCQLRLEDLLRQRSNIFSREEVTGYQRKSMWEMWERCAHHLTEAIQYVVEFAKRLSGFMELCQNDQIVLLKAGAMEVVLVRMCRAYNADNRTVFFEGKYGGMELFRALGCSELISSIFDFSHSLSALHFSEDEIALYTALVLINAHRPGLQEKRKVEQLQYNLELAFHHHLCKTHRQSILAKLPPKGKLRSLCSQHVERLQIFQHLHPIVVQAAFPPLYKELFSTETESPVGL
Test: RORgT Gal4 Luciferase Reporter Gene Assay
Type: cell-based
Settings: engineered Jurkat cells overexpressing RORgT (LBD or full length) fused with Gal4 Luc reporter; 18 hours at 37° C.; luminescence
Procedure: RORgT Gal4 Luciferase Reporter Gene Assay
25 µL of cryopreserved Jurkat cells over expressing ligand binding domain (LBD) of RORgT (aa267-516, NM_005060) and Gal4 Luc, or full length of human RORgT and Gal4 Luc, were plated in 384-well solid white cell culture plates (PerkinElmer 6007899), with a density of 10,000 cells/well in RPMI 1640 cell culture media (Gibco 11875-085). The media contained 0.1% BSA, 10 mM HEPES (Gibco 15360-080), […] Sodium Pyruvate (Gibco 11360-040), […] Hygromycin B (Invitrogen 10687-010), and […] Blasticidin (Invitrogen R210-01).
100 nL of compound at varying concentrations in 3-fold serial dilution, with final concentrations ranging from 40 µM to 0.67 nM, were added to the cells using Labcyte Echo 550. The compound and the cells were incubated for 18 hours at 37° C. in a cell culture incubator. Cells were then lysed with 15 uL of Steady-Glo Luciferase Assay reagent (Promega EZ550), followed by centrifuging the assay plates at 1500 RPM for 1 minute. Subsequently, the plates were read on the Envision (PerkinElmer). The inhibition of constitutive activity of RORgT achieved by graded concentrations of compound was calculated as a percentage of the luminescence signal window reduction over a control compound.

CC(=O)N1CCC(C(=O)N2CC[C@@]3(S(=O)(=O)c4ccc(F)cc4)c4ccc(OCc5cc(F)c(F)cc5Cl)cc4CC[C@@H]23)CC1 [Example 219, 1-{4-[(3aR,9bR)-7-[(2-chloro-4,5-difluorophenyl)methoxy]-9b-(4-fluorobenzenesulfonyl)-1H,2H,3H,3aH,4H,5H,9bH-benzo[e]indole-3-carbonyl]piperidin-1-yl}ethan-1-one]
pEC50: 7.28

O=C(CN1CCS(=O)(=O)CC1)N1CC[C@@]2(S(=O)(=O)c3ccc(F)cc3)c3ccc(OCc4cc(Cl)ccc4Cl)cc3CC[C@@H]12 [Example 197, 4-{2-[(3aR,9bR)-7-[(2,5-dichlorophenyl)methoxy] -9b-(4-fluorobenzenesulfonyl)-1H,2H,3H,3aH,4H,5H,9bH-benzo[e]indol-3-yl]-2-oxoethyl}-1λ^6-thiomorpholine-1,1-dione]
pEC50: 7.31

O=C(C1CCS(=O)(=O)C1)N1CC[C@@]2(S(=O)(=O)c3ccc(F)cc3)c3ccc(OCc4ccc(F)cc4Cl)cc3CC[C@@H]12 (stereo partly drawn) [Example 201, 3-[(3aR,9bR)-7-[(2-chloro-4-fluorophenyl)methoxy]-9b-(4-fluorobenzenesulfonyl)-1H,2H,3H,3aH,4H,5H,9bH-benzo[e]indole-3-carbonyl]-1λ^6-thiolane-1,1-dione]
pEC50: 7.40

CS(=O)(=O)C1CCN(C(=O)N2CC[C@@]3(S(=O)(=O)c4ccccc4)c4ccc(OCc5c(Cl)cccc5Cl)cc4CC[C@@H]23)C1 (stereo partly drawn) [Example 93, 1-[(3aR,9bR)-9b-(benzenesulfonyl)-7-[(2,6-dichlorophenyl)methoxy]-1H,2H,3H,3aH,4H,5H,9bH-benzo[e]indole-3-carbonyl]-3-methanesulfonylpyrrolidine]
pEC50: 6.54

O=C(O)[C@H]1CC[C@H](C(=O)N2CC[C@@]3(S(=O)(=O)c4ccc(F)cc4)c4ccc(OCc5ccccc5)cc4CC[C@@H]23)CC1 [Example 120, (1r,4r)-4-[(3aR,9bR)-7-(benzyloxy)-9b-(4-fluorobenzenesulfonyl)-1H,2H,3H,3aH,4H,5H,9bH-benzo[e]indole-3-carbonyl]cyclohexane-1-carboxylic acid]
pEC50: 7.74

O=C(C1CCS(=O)(=O)CC1)N1CC[C@@]2(S(=O)(=O)c3ccc(F)cc3)c3ccc(OCc4c(F)cccc4Cl)cc3CC[C@@H]12 [Example 166, 4-[(3aR,9bR)-7-[(2-chloro-6-fluorophenyl)methoxy]-9b-(4-fluorobenzenesulfonyl)-1H,2H,3H,3aH,4H,5H,9bH-benzo[e]indole-3-carbonyl]-1λ^6-thiane-1,1-dione]
pEC50: 8.11

CS(=O)(=O)C1CCN(C(=O)N2CC[C@@]3(S(=O)(=O)c4ccccc4)c4ccc(OCc5c(Cl)cccc5Cl)cc4CC[C@@H]23)CC1 [Example 82, 1-[(3aR,9bR)-9b-(benzenesulfonyl)-7-[(2,6-dichlorophenyl)methoxy]-1H,2H,3H,3aH,4H,5H,9bH-benzo[e]indole-3-carbonyl]-4-methanesulfonylpiperidine]
pEC50: 7.01

(1R,4r)-4-((3aR,9bR)-7-((2-chloro-6-fluorobenzyl)oxy)-9b-((4-fluorophenyl)sulfonyl)-2,3,3a,4,5,9b-hexahydro-1H-benzo[e]indole-3-carbonyl)-1-methylcyclohexanecarboxylic acid [Example 8]
pEC50: 7.92

C[C@@H]1C[C@@H](C(=O)O)CC[C@@H]1C(=O)N1CC[C@@]2(S(=O)(=O)c3ccc(F)cc3)c3ccc(OCc4c(F)cccc4Cl)cc3CC[C@@H]12 [Example 22, (1S,3R,4S)-4-[(3aR,9bR)-7-[(2-chloro-6-fluorophenyl)methoxy]-9b-(4-fluorobenzenesulfonyl)-1H,2H,3H,3aH,4H,5H9bH-benzo[e]indole-3-carbonyl]-3-methylcyclohexane-1-carboxylic acid]
pEC50: 7.77

CN1NC(=O)C[C@H]1C(=O)N1CC[C@@]2(S(=O)(=O)c3ccccc3)c3ccc(OCc4c(F)cccc4Cl)cc3CC[C@@H]12 [Example 144, (5S)-5-[(3aR,9bR)-9b-(benzenesulfonyl)-7-[(2-chloro-6-fluorophenyl)methoxy]-1H,2H,3H,3aH,4H,5H,9bH-benzo[e]indole-3-carbonyl]-1-methylpyrazolidin-3-one]
pEC50: 6.95
